Measurements as given in PubChem BioAssay AID248 (DTP/NCI, 2004).
“And” between values parts separate entries of the source, which are not always exact repeats. Equal values may be shown once. Inconclusive results and toxic doses are left out. Rule as the data show it: active = T/C of 150% or more; inactive = T/C below 125%.

Tested on: L1210 leukemia ip in BDF1 mice, survival T/C
Assay: NCI In Vivo Anticancer Drug Screen. Data for tumor model L1210 Leukemia (intraperitoneal) in B6D2F1 (BDF1) mice
Details: endpoint: mean survival time, higher = longer survival
In short: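 Tumor cells were implanted, animals were treated, and survival was followed. The result divides the treated measurement by the vehicle-control measurement.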

[1] = dose: 5.0 mg/kg/injection, schedule: Q01DX001 (ip), vehicle: saline
[2] = dose: 10.0 mg/kg/injection, schedule: Q01DX001 (ip), vehicle: saline
[3] = dose: 12.5 mg/kg/injection, schedule: Q04DX003 (ip), vehicle: Klucel (hydroxypropylcellulose) (HPC)
[4] = dose: 20.0 mg/kg/injection, schedule: Q01DX001 (ip), vehicle: saline
[5] = dose: 25.0 mg/kg/injection, schedule: Q04DX003 (ip), vehicle: Klucel (hydroxypropylcellulose) (HPC)
[6] = dose: 40.0 mg/kg/injection, schedule: Q01DX001 (ip), vehicle: saline
[7] = dose: 50.0 mg/kg/injection, schedule: Q04DX003 (ip), vehicle: Klucel (hydroxypropylcellulose) (HPC)
[8] = dose: 100.0 mg/kg/injection, schedule: Q01DX001 (ip), vehicle: Klucel (hydroxypropylcellulose) (HPC)
[9] = dose: 100.0 mg/kg/injection, schedule: Q04DX003 (ip), vehicle: Klucel (hydroxypropylcellulose) (HPC)
[10] = dose: 200.0 mg/kg/injection, schedule: Q01DX001 (ip), vehicle: Klucel (hydroxypropylcellulose) (HPC)
[11] = dose: 200.0 mg/kg/injection, schedule: Q04DX003 (ip), vehicle: Klucel (hydroxypropylcellulose) (HPC)
[12] = dose: 400.0 mg/kg/injection, schedule: Q01DX001 (ip), vehicle: Klucel (hydroxypropylcellulose) (HPC)
[13] = dose: 400.0 mg/kg/injection, schedule: Q04DX003 (ip), vehicle: Klucel (hydroxypropylcellulose) (HPC)
[14] = dose: 100.0 mg/kg/injection, schedule: Q01DX009 (ip), vehicle: saline with Tween-80
[15] = dose: 200.0 mg/kg/injection, schedule: Q01DX009 (ip), vehicle: saline with Tween-80
[16] = dose: 100.0 mg/kg/injection, schedule: Q01DX001 (ip), vehicle: carboxymethylcellulose (CMC)
[17] = dose: 200.0 mg/kg/injection, schedule: Q01DX001 (ip), vehicle: carboxymethylcellulose (CMC)
[18] = dose: 400.0 mg/kg/injection, schedule: Q01DX001 (ip), vehicle: carboxymethylcellulose (CMC)
[19] = dose: 100.0 mg/kg/injection, schedule: Q04DX003 (ip), vehicle: saline with Tween-80
[20] = dose: 200.0 mg/kg/injection, schedule: Q04DX003 (ip), vehicle: saline with Tween-80
[21] = dose: 400.0 mg/kg/injection, schedule: Q04DX003 (ip), vehicle: saline with Tween-80
[22] = dose: 100.0 mg/kg/injection, schedule: Q01DX001 (ip), vehicle: saline
[23] = dose: 200.0 mg/kg/injection, schedule: Q01DX001 (ip), vehicle: saline
[24] = dose: 400.0 mg/kg/injection, schedule: Q01DX001 (ip), vehicle: saline

Measured: T/C

NCCCNc1ccc([N+](=O)[O-])cc1
inactive: dose: 37.5 mg/kg/injection, schedule: Q04DX003 (ip), vehicle: saline 101 % of control | dose: 75.0 mg/kg/injection, schedule: Q04DX003 (ip), vehicle: saline 102 % of control | dose: 150.0 mg/kg/injection, schedule: Q04DX003 (ip), vehicle: saline 101 % of control

CC(=O)C(=O)Nc1ccccc1
inactive: dose: 100.0 mg/kg/injection, schedule: Q01DX001 (ip), vehicle: saline with Tween-80 94 % of control | dose: 200.0 mg/kg/injection, schedule: Q01DX001 (ip), vehicle: saline with Tween-80 91 % of control | dose: 400.0 mg/kg/injection, schedule: Q01DX001 (ip), vehicle: saline with Tween-80 94 % of control

Cc1nc(N)sc1N=Nc1cccc(Cl)c1Cl
inactive: dose: 75.0 mg/kg/injection, schedule: Q01DX001 (ip), vehicle: saline 88 % of control | dose: 150.0 mg/kg/injection, schedule: Q01DX001 (ip), vehicle: saline 92 % of control | dose: 300.0 mg/kg/injection, schedule: Q01DX001 (ip), vehicle: saline 93 % of control

CCCC[P+](CCCC)(CCCC)Cc1ccccc1
inactive: [1] 100 % of control | [2] 119 % of control | [3] 104 % of control | [4] 98 % of control | [5] 104 % of control | [6] 96 % of control

CCOC(=O)C1(C(=O)OCC)CC(=O)c2c(OC)ccc(OC)c2C1
inactive: [3] 94 % of control | [5] 105 % of control | [7] 98 % of control | [8] 98 % of control | [9] 95 % of control | [10] 98 % of control | [11] 103 % of control | [12] 106 % of control | [13] 111 % of control

Oc1ccc2nocc2c1N=Nc1ccccc1
inactive: dose: 50.0 mg/kg/injection, schedule: Q01DX009 (ip), vehicle: saline with Tween-80 98 % of control | [14] 98 % of control | [15] 95 % of control

CCSc1cccc(C(=O)O)c1
inactive: [16] 102 % of control | [17] 94 % of control | [18] 100 % of control

Cc1cnc2c(N)nn(-c3ccccc3)c2n1
inactive: [14] 93 % of control | [19] 95 % of control | [15] 101 % of control | [20] 97 % of control | dose: 400.0 mg/kg/injection, schedule: Q01DX009 (ip), vehicle: saline with Tween-80 98 % of control | [21] 94 % of control

CCOc1ccc([N+](=O)[O-])cc1C1N(Cc2ccccc2OC)CCCN1Cc1ccccc1OC
inactive: [16] 98 % of control | [17] 98 % of control | [18] 104 % of control

COC(=O)COc1c(C)cc(Cl)cc1Cl
inactive: dose: 100.0 mg/kg/injection, schedule: Q04DX002 (ip), vehicle: saline with Tween-80 96 % of control | dose: 200.0 mg/kg/injection, schedule: Q04DX002 (ip), vehicle: saline with Tween-80 86 % of control | dose: 400.0 mg/kg/injection, schedule: Q04DX002 (ip), vehicle: saline with Tween-80 98 % of control

O=S(=O)(O)C(O)c1ccc(Cl)cc1Cl (stereo not drawn)
inactive: dose: 100.0 mg/kg/injection, schedule: Q04DX003 (ip), vehicle: saline 102 % of control | dose: 200.0 mg/kg/injection, schedule: Q04DX003 (ip), vehicle: saline 102 % of control | dose: 400.0 mg/kg/injection, schedule: Q04DX003 (ip), vehicle: saline 107 % of control

CC(C)CC(NC(=O)C(C)NC(=O)OCc1ccccc1)C(=O)OCc1ccccc1 (stereo not drawn)
inactive: [19] 92 % of control | [20] 92 % of control | [21] 91 % of control

CCCCP(=O)(CCCC)CCP(=O)(CCCC)CCCC
inactive: [19] 88 % of control | [20] 97 % of control

CN(C)c1ccc(S(=O)(=O)c2ccc(N(C)C)c([N+](=O)[O-])c2)cc1[N+](=O)[O-]
inactive: dose: 100.0 mg/kg/injection, schedule: Q04DX002 (ip), vehicle: DMSO 107 % of control | dose: 200.0 mg/kg/injection, schedule: Q04DX002 (ip), vehicle: DMSO 103 % of control | dose: 400.0 mg/kg/injection, schedule: Q04DX002 (ip), vehicle: DMSO 103 % of control

Nc1nc(=O)[nH]nc1SCc1ccccc1
inactive: [22] 104 % of control | [23] 98 % of control | [24] 98 % of control

Clc1ccc(Cl)c(CBr)c1Cl
inactive: [5] 98 % of control | dose: 50.0 mg/kg/injection, schedule: Q01DX009 (ip), vehicle: Klucel (hydroxypropylcellulose) (HPC) 98 % of control | [7] 101 % of control | dose: 100.0 mg/kg/injection, schedule: Q01DX009 (ip), vehicle: Klucel (hydroxypropylcellulose) (HPC) 88 % of control | [9] 101 % of control | [19] 100 % of control | dose: 200.0 mg/kg/injection, schedule: Q01DX009 (ip), vehicle: Klucel (hydroxypropylcellulose) (HPC) 90 % of control

CCC(C(=O)c1ccccc1)C(O)(C(F)(F)F)C(F)(F)F (stereo not drawn)
inactive: [8] 96 % of control | [9] 94 % of control | [10] 106 % of control | [11] 104 % of control | [12] 95 % of control | [13] 104 % of control

CCCCCCCCCCCCCCC[n+]1ccc(C#N)cc1
inactive: dose: 5.0 mg/kg/injection, schedule: Q01DX009 (ip), vehicle: acetone 101 % of control | [2] 93 % of control | dose: 10.0 mg/kg/injection, schedule: Q01DX009 (ip), vehicle: acetone 100 % of control | dose: 10.0 mg/kg/injection, schedule: Q04DX003 (ip), vehicle: saline 101 % of control | [4] 93 % of control | dose: 20.0 mg/kg/injection, schedule: Q04DX003 (ip), vehicle: saline 94 % of control | [6] 98 % of control | dose: 40.0 mg/kg/injection, schedule: Q04DX003 (ip), vehicle: saline 92 % of control

O=C(Nc1ccc(Cl)c(Cl)c1)OCCN(c1ccccc1)c1ccccc1
inactive: [16] 88 % of control | [17] 97 % of control | [18] 92 % of control

Cc1cc(Cl)c(Cl)cc1NC(=O)c1ccccc1F
inactive: dose: 100.0 mg/kg/injection, schedule: Q01DX001 (ip), vehicle: other 94 % of control | dose: 100.0 mg/kg/injection, schedule: Q01DX009 (ip), vehicle: other 107 % of control and 92 % of control | dose: 100.0 mg/kg/injection, schedule: Q04DX002 (ip), vehicle: other 98 % of control and 102 % of control | dose: 100.0 mg/kg/injection, schedule: Q04DX003 (ip), vehicle: other 98 % of control | dose: 200.0 mg/kg/injection, schedule: Q01DX001 (ip), vehicle: other 92 % of control | dose: 200.0 mg/kg/injection, schedule: Q01DX009 (ip), vehicle: other 90 % of control and 92 % of control | dose: 200.0 mg/kg/injection, schedule: Q04DX002 (ip), vehicle: other 105 % of control and 91 % of control | dose: 200.0 mg/kg/injection, schedule: Q04DX003 (ip), vehicle: other 100 % of control | dose: 400.0 mg/kg/injection, schedule: Q01DX001 (ip), vehicle: other 91 % of control | dose: 400.0 mg/kg/injection, schedule: Q01DX009 (ip), vehicle: other 90 % of control and 92 % of control | dose: 400.0 mg/kg/injection, schedule: Q04DX002 (ip), vehicle: other 100 % of control and 102 % of control | dose: 400.0 mg/kg/injection, schedule: Q04DX003 (ip), vehicle: other 96 % of control

CC(=O)Nc1ccc(-n2cnc3c(Cl)ncnc32)cc1C
inactive: [16] 87 % of control | [17] 91 % of control | [18] 91 % of control

O=c1[nH]c(=O)c2[nH]c(Br)c(Br)c2[nH]1
inactive: [22] 93 % of control | [23] 96 % of control | [24] 93 % of control

CC1(CCCOc2ccc(N)cc2)N=C(N)N=C(N)N1c1ccccc1 (stereo not drawn)
inactive: [1] 96 % of control | [2] 96 % of control | [4] 92 % of control | [6] 92 % of control | dose: 80.0 mg/kg/injection, schedule: Q01DX001 (ip), vehicle: saline 90 % of control
